Common to all, as to assay: Glasshouse assay for herbicidal activity (pre- and post-emergence), percentage phytotoxicity
Holding throughout (assay type): in vivo

For assay [1], the system named is Lolium perenne (LOLPE). Conditions: Lolium perenne. The gist of the method: (§1)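 Damage was rated visually as percent phytotoxicity, 100% meaning total kill, 20 days after pre-emergence application (made one day post-sowing) or 15 days after post-emergence application (made about 12 days post-sowing). Plants were grown under 16 h light, 65% humidity, warm species 24/18° C, cool 20/16° C.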

In assay [2] the test system is Avena fatua (AVEFA). Conditions: Avena fatua. A digest of the protocol: as §1
For assay [3], the system named is Echinochloa crus-galli (ECHCG). Conditions: Echinochloa crus-galli. A digest of the protocol:
as §1

Assay [4] deals with Alopecurus myosuroides (ALOMY). Conditions: Alopecurus myosuroides. A digest of the protocol: as §1
[5] abbreviates: post-emergence, 360 h, 250 g/ha, post-emergence, 15 DAA, visual assessment (100%=total damage, 0%=no damage), read-out: Post-emergence herbicidal activity (percentage phytotoxicity) LOLPE POST.
Setting [6] is: pre-emergence, 480 h, 250 g/ha, pre-emergence, 20 DAA, visual assessment (100%=total damage, 0%=no damage), read-out: Pre-emergence herbicidal activity (percentage phytotoxicity) LOLPE PRE.
The mark [7] stands for this setting: post-emergence, 360 h, 250 g/ha, post-emergence, 15 DAA, visual assessment (100%=total damage, 0%=no damage), read-out: Post-emergence herbicidal activity (percentage phytotoxicity) AVEFA POST.
Setting [8] is: pre-emergence, 480 h, 250 g/ha, pre-emergence, 20 DAA, visual assessment (100%=total damage, 0%=no damage), read-out: Pre-emergence herbicidal activity (percentage phytotoxicity) AVEFA PRE.
Where [9] appears, read: post-emergence, 360 h, 250 g/ha, post-emergence, 15 DAA, visual assessment (100%=total damage, 0%=no damage), read-out: Post-emergence herbicidal activity (percentage phytotoxicity) ECHCG POST.
The mark [10] stands for this setting: pre-emergence, 480 h, 250 g/ha, pre-emergence, 20 DAA, visual assessment (100%=total damage, 0%=no damage), read-out: Pre-emergence herbicidal activity (percentage phytotoxicity) ECHCG PRE.
Setting [11] is: post-emergence, 360 h, 250 g/ha, post-emergence, 15 DAA, visual assessment (100%=total damage, 0%=no damage), read-out: Post-emergence herbicidal activity (percentage phytotoxicity) ALOMY POST.
Where [12] appears, read: pre-emergence, 480 h, 250 g/ha, pre-emergence, 20 DAA, visual assessment (100%=total damage, 0%=no damage), read-out: Pre-emergence herbicidal activity (percentage phytotoxicity) ALOMY PRE.
Where [13] appears, read: post-emergence, 360 h, Rate 250 g/ha, post-emergence, visual assessment 15 DAA, 100%=total damage, 0%=no damage, read-out: Post-emergence herbicidal activity (percentage phytotoxicity) LOLPE POST.
[14] abbreviates: pre-emergence, 480 h, Rate 250 g/ha, pre-emergence, visual assessment 20 DAA, 100%=total damage, 0%=no damage, read-out: Pre-emergence herbicidal activity (percentage phytotoxicity) LOLPE PRE.
Setting [15] is: post-emergence, 360 h, Rate 250 g/ha, post-emergence, visual assessment 15 DAA, 100%=total damage, 0%=no damage, read-out: Post-emergence herbicidal activity (percentage phytotoxicity) AVEFA POST.
The mark [16] stands for this setting: pre-emergence, 480 h, Rate 250 g/ha, pre-emergence, visual assessment 20 DAA, 100%=total damage, 0%=no damage, read-out: Pre-emergence herbicidal activity (percentage phytotoxicity) AVEFA PRE.
[17] abbreviates: post-emergence, 360 h, Rate 250 g/ha, post-emergence, visual assessment 15 DAA, 100%=total damage, 0%=no damage, read-out: Post-emergence herbicidal activity (percentage phytotoxicity) ECHCG POST.
Setting [18] is: pre-emergence, 480 h, Rate 250 g/ha, pre-emergence, visual assessment 20 DAA, 100%=total damage, 0%=no damage, read-out: Pre-emergence herbicidal activity (percentage phytotoxicity) ECHCG PRE.
Setting [19] is: post-emergence, 360 h, Rate 250 g/ha, post-emergence, visual assessment 15 DAA, 100%=total damage, 0%=no damage, read-out: Post-emergence herbicidal activity (percentage phytotoxicity) ALOMY POST.
The mark [20] stands for this setting: pre-emergence, 480 h, Rate 250 g/ha, pre-emergence, visual assessment 20 DAA, 100%=total damage, 0%=no damage, read-out: Pre-emergence herbicidal activity (percentage phytotoxicity) ALOMY PRE.
Setting [21] is: post-emergence, 360 h, Rate 250 g/ha, post-emergence, assessed visually 15 DAA, 100%=total damage, 0%=no damage, read-out: Post-emergence herbicidal activity (percentage phytotoxicity) LOLPE POST.
Setting [22] is: pre-emergence, 480 h, Rate 250 g/ha, pre-emergence, assessed visually 20 DAA, 100%=total damage, 0%=no damage, read-out: Pre-emergence herbicidal activity (percentage phytotoxicity) LOLPE PRE.
Where [23] appears, read: post-emergence, 360 h, Rate 250 g/ha, post-emergence, assessed visually 15 DAA, 100%=total damage, 0%=no damage, read-out: Post-emergence herbicidal activity (percentage phytotoxicity) AVEFA POST.
The mark [24] stands for this setting: pre-emergence, 480 h, Rate 250 g/ha, pre-emergence, assessed visually 20 DAA, 100%=total damage, 0%=no damage, read-out: Pre-emergence herbicidal activity (percentage phytotoxicity) AVEFA PRE.
[25] abbreviates: post-emergence, 360 h, Rate 250 g/ha, post-emergence, assessed visually 15 DAA, 100%=total damage, 0%=no damage, read-out: Post-emergence herbicidal activity (percentage phytotoxicity) ECHCG POST.
Where [26] appears, read: pre-emergence, 480 h, Rate 250 g/ha, pre-emergence, assessed visually 20 DAA, 100%=total damage, 0%=no damage, read-out: Pre-emergence herbicidal activity (percentage phytotoxicity) ECHCG PRE.
[27] abbreviates: post-emergence, 360 h, Rate 250 g/ha, post-emergence, assessed visually 15 DAA, 100%=total damage, 0%=no damage, read-out: Post-emergence herbicidal activity (percentage phytotoxicity) ALOMY POST.
The mark [28] stands for this setting: pre-emergence, 480 h, Rate 250 g/ha, pre-emergence, assessed visually 20 DAA, 100%=total damage, 0%=no damage, read-out: Pre-emergence herbicidal activity (percentage phytotoxicity) ALOMY PRE.
[29] abbreviates: post-emergence, 360 h, POST-emergence, rate 250 g/ha, visual score 15 DAA (100%=total damage, 0%=no damage), read-out: Post-emergence herbicidal activity (percentage phytotoxicity) LOLPE POST.
The mark [30] stands for this setting: pre-emergence, 480 h, PRE-emergence, rate 250 g/ha, visual score 20 DAA (100%=total damage, 0%=no damage), read-out: Pre-emergence herbicidal activity (percentage phytotoxicity) LOLPE PRE.
Where [31] appears, read: post-emergence, 360 h, POST-emergence, rate 250 g/ha, visual score 15 DAA (100%=total damage, 0%=no damage), read-out: Post-emergence herbicidal activity (percentage phytotoxicity) AVEFA POST.
The mark [32] stands for this setting: pre-emergence, 480 h, PRE-emergence, rate 250 g/ha, visual score 20 DAA (100%=total damage, 0%=no damage), read-out: Pre-emergence herbicidal activity (percentage phytotoxicity) AVEFA PRE.
The mark [33] stands for this setting: post-emergence, 360 h, POST-emergence, rate 250 g/ha, visual score 15 DAA (100%=total damage, 0%=no damage), read-out: Post-emergence herbicidal activity (percentage phytotoxicity) ECHCG POST.
The mark [34] stands for this setting: pre-emergence, 480 h, PRE-emergence, rate 250 g/ha, visual score 20 DAA (100%=total damage, 0%=no damage), read-out: Pre-emergence herbicidal activity (percentage phytotoxicity) ECHCG PRE.
The mark [35] stands for this setting: post-emergence, 360 h, POST-emergence, rate 250 g/ha, visual score 15 DAA (100%=total damage, 0%=no damage), read-out: Post-emergence herbicidal activity (percentage phytotoxicity) ALOMY POST.
Setting [36] is: pre-emergence, 480 h, PRE-emergence, rate 250 g/ha, visual score 20 DAA (100%=total damage, 0%=no damage), read-out: Pre-emergence herbicidal activity (percentage phytotoxicity) ALOMY PRE.

Read-outs that look alike come from different tables or passages of the source.

Experimental findings from patent US10206394B2, “Herbicidal compounds” (Syngenta Participations AG, priority 2014, dated 2019) are described below.

On to `Cc1cc(C)c(C2C(=O)CC(CC(=O)NCc3ccc(Cl)cc3)C2=O)c(C)c1` (stereo not drawn) [Compound B13], for which the pest or weed control at 250 g/ha came out at 90% in assay [1] (setting [5]); 90% in assay [1] (setting [6]); 70% in assay [2] (setting [7]); 40% in assay [2] (setting [8]); 80% in assay [3] (setting [9]); 90% in assay [3] (setting [10]). Also, the pest or weed control at 250 g/ha in assay [4] (setting [11]) and in assay [4] (setting [12]) was 50% each time.

As to `Cc1cc(-c2ccc(Cl)cn2)cc(C)c1C1C(=O)CC(CC(=O)NCc2cccc(Br)c2)C1=O` (stereo not drawn) [Compound B359], the pest or weed control at 250 g/ha in assay [1] (setting [13]) amounted to 90%; in assay [1] (setting [14]), 90%; in assay [2] (setting [15]), 100%; in assay [2] (setting [16]), 70%; in assay [3] (setting [17]), 100%; in assay [3] (setting [18]), 80%. Further, the pest or weed control at 250 g/ha in assay [4] (setting [19]) and in assay [4] (setting [20]) was 90% each time.

In the case of `Cc1cc(C)c(C2C(=O)CC(CC(=O)NCc3ccoc3)C2=O)c(C)c1` (stereo not drawn) [Compound A99], the pest or weed control at 250 g/ha stood at 70% in assay [1] (setting [21]); 20% in assay [1] (setting [22]); 30% in assay [2] (setting [23]); 0% in assay [2] (setting [24]); 0% in assay [3] (setting [25]); 0% in assay [3] (setting [26]). For the same molecule, the pest or weed control at 250 g/ha was determined as 60% in assay [4] (setting [27]) and 20% in assay [4] (setting [28]).

Consider `CCCNC(=O)CC1CC(=O)C(c2c(C)cc(-c3ncc(Cl)cc3F)cc2C)C1=O` (stereo not drawn) [Compound B144], for which the pest or weed control at 250 g/ha in assay [1] (setting [5]), in assay [1] (setting [6]), in assay [2] (setting [7]), in assay [2] (setting [8]), in assay [3] (setting [9]) and in assay [3] (setting [10]) was 100% in each case. Besides, the pest or weed control at 250 g/ha in assay [4] (setting [11]) and in assay [4] (setting [12]) was 100% in each case.

On to `C=CCNC(=O)CC1CC(=O)C(c2c(C)cc(OCC(F)(F)F)cc2C)C1=O` (stereo not drawn) [Compound B209], for which the pest or weed control at 250 g/ha in assay [1] (setting [29]) stood at 80%; in assay [1] (setting [30]), 90%; in assay [2] (setting [31]), 80%; in assay [2] (setting [32]), 80%; in assay [3] (setting [33]) it was 100%; in assay [3] (setting [34]), 100%. Moreover, the pest or weed control at 250 g/ha in assay [4] (setting [35]) was 90%; in assay [4] (setting [36]) it was 100%.

As to `Cc1cc(-c2ccc(Cl)cc2)cc(C)c1C1C(=O)CC(CC(=O)NC(C)(C)C#N)C1=O` (stereo not drawn) [Compound B378], the pest or weed control at 250 g/ha was 70% in assay [1] (setting [13]); 80% in assay [1] (setting [14]); 100% in assay [2] (setting [15]); 90% in assay [2] (setting [16]); 100% in assay [3] (setting [17]); 90% in assay [3] (setting [18]). The pest or weed control at 250 g/ha turned out to be 80% in assay [4] (setting [19]) and 70% in assay [4] (setting [20]).

On to `Cc1cc(C)c(C2C(=O)CC(CC(=O)NCc3cc(C)nn3C)C2=O)c(C)c1` (stereo not drawn) [Compound A84], for which the pest or weed control at 250 g/ha in assay [1] (setting [21]) worked out at 20%; in assay [1] (setting [22]), 10%; in assay [2] (setting [23]), 20%; in assay [2] (setting [24]) it was 0%; in assay [3] (setting [25]), 70%; in assay [3] (setting [26]), 0%. Further, the pest or weed control at 250 g/ha in assay [4] (setting [27]) came out at 60%; in assay [4] (setting [28]), 40%.

Consider `Cc1cc(Br)cc(C)c1C1C(=O)CC(CC(=O)NCC2CC2C(F)F)C1=O` (stereo not drawn) [Compound B142], for which the pest or weed control at 250 g/ha in assay [1] (setting [5]) is 90%; in assay [1] (setting [6]) it was 70%; in assay [2] (setting [7]) it was 90%; in assay [2] (setting [8]), 70%; in assay [3] (setting [9]), 80%; in assay [3] (setting [10]) it was 0%. In addition, the pest or weed control at 250 g/ha in assay [4] (setting [11]) and in assay [4] (setting [12]) was 90% each time.

Turning to `Cc1cc(-c2ccc(C#N)cn2)cc(C)c1C1C(=O)CC(CC(=O)NC(C)C)C1=O` (stereo not drawn) [Compound B320], the pest or weed control at 250 g/ha in assay [1] (setting [29]), in assay [1] (setting [30]), in assay [2] (setting [31]), in assay [2] (setting [32]), in assay [3] (setting [33]) and in assay [3] (setting [34]) was 100% throughout. In addition, the pest or weed control at 250 g/ha in assay [4] (setting [35]) and in assay [4] (setting [36]) was 100% in each case.
